Reference: patent publication US8153821B2, “Compounds” (priority 2008, dated 2012)
Like-named read-outs stand apart in the source and are kept apart here.

Assays:
[1] = target: T1, rat native α4β2 receptors (Rattus norvegicus, UniProt P09483+P12390); assay: Radioligand binding, rat native α4β2 in rat cortical membranes
T1 construct: rat native α4β2 receptors in rat cortical membranes; from tissue; host or cells: rat cerebral cortex (female Sprague-Dawley)
Method: Preparation of membranes from rat cortex: Rats (female, Sprague-Dawley), weighing 150-250 g, were maintained on a 12 h light/dark cycle and were allowed free access to water and food supplied by PMI Nutrition International, Inc. Animals were anesthetized with 70% CO2, and then decapitated. Brains were removed and placed on an ice-cold platform. The cerebral cortex was removed and placed in 20 volumes (weight:volume) of ice-cold preparative buffer (137 mM NaCl, 10.7 mM KCl, 5.8 mM KH2PO4, 8 mM Na2HPO4, 20 mM HEPES (free acid), 5 mM iodoacetamide, 1.6 mM EDTA, pH 7.4); PMSF, dissolved in methanol to a final concentration of 100 μM, was added and the suspension was homogenized by Polytron. […]
Assay. […] Protein concentrations were determined using a Pierce BCA Protein Assay Kit, with bovine serum albumin as the standard (Pierce Chemical Company, Rockford, Ill.).
Incubation was terminated by rapid filtration on a multi-manifold tissue harvester (Brandel, Gaithersburg, Md.) using GF/B filters presoaked in 0.33% polyethyleneimine (w/v) to reduce non-specific binding. […] Filters were then counted to determine radioactivity bound to the membranes by liquid scintillation counting (2200CA Tri-Carb LSC, Packard Instruments, 50% efficiency or Wallac Trilux 1450 MicroBeta, 40% efficiency, Perkin Elmer).
Data were expressed as disintegrations per minute (DPMs). […]

[2] = target: T2, rat native α7 receptors (Rattus norvegicus, UniProt Q05941); assay: [3H]MLA binding, rat hippocampal membranes
T2 construct: rat native α7 receptors in rat hippocampal membranes; from tissue; host or cells: rat hippocampus (female Sprague-Dawley)
Method: Rats (female, Sprague-Dawley), weighing 150-250 g, were maintained on a 12 h light/dark cycle and were allowed free access to water and food supplied by PMI Nutrition International, Inc. Animals were anesthetized with 70% CO2, and then decapitated. Brains were removed and placed on an ice-cold platform. The hippocampus was removed and placed in 10 volumes (weight:volume) of ice-cold preparative buffer (137 mM NaCl, 10.7 mM KCl, 5.8 mM KH2PO4, 8 mM Na2HPO4, 20 mM HEPES (free acid), 5 mM iodoacetamide, 1.6 mM EDTA, pH 7.4); PMSF, dissolved in methanol to a final concentration of 100 μM, was added and the tissue suspension was homogenized by Polytron. […] Protein was determined by the method of Lowry et al., J. Biol. Chem. 193: 265 (1951), using bovine serum albumin as the standard.
The binding of [^3H]MLA was measured using a modification of the methods of Davies et al., Neuropharmacol. […] The binding of [^3H]MLA was determined using a 2 h incubation at 21° C. […] Non-specific binding was determined by inclusion of 50 μM non-radioactive MLA in selected wells.
The inhibition of [^3H]MLA binding by test compounds was determined by including seven different concentrations of the test compound in selected wells. […] Inhibition constants (Ki values), reported in nM, were calculated from the IC50 values using the method of Cheng et al., Biochem. Pharmacol. 22: 3099-3108 (1973).

[3] = target: T3, human native muscle-type nicotinic receptors (likely α1β1γδ) (Homo sapiens, UniProt P02708+P07510+Q07001); assay: [3H]epibatidine binding, TE-671 membranes
T3 construct: human native muscle-type nicotinic receptors (likely α1β1γδ); endogenous in cells; host or cells: TE-671 (TE671/RD)

[4] = target: T4, hERG (Homo sapiens, UniProt Q12809); assay: cell-based
T4 construct: expressed in transfected cells; host or cells: HEK-239 (so in the source)

[5] = target: CYP2C9 (Homo sapiens, UniProt P11712); format: in vitro ADME
[6] = target: Pgp brain pump (Homo sapiens, UniProt P08183); format: in vitro ADME; conditions: not told
[7] = format: physicochemical
Text: One aspect of the present invention relates to novel salt forms of (R)-3-((E)-2-(pyrrolidin-3-yl)vinyl)-5-(tetrahydropyran-4-yloxy)pyridine. […] However, the free base may react with both inorganic and organic acids to make acid addition salts that have physical properties that are advantageous for the preparation of pharmaceutical compositions such as crystallinity, water solubility, and stability toward chemical degradation.

T2 sequence (Q05941 23-502): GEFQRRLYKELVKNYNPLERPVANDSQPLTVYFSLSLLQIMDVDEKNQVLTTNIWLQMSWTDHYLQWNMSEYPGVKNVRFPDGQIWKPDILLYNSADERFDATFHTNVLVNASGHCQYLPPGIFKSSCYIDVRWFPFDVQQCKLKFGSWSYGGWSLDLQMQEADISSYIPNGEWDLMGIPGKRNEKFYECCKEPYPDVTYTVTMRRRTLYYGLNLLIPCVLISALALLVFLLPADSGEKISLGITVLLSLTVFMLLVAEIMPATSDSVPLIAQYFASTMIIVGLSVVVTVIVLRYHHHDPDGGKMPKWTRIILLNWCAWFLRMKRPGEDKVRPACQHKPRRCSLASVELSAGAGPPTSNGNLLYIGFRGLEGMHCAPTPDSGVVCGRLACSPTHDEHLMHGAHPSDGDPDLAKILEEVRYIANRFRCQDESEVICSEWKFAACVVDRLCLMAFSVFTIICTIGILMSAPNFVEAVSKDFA
CYP2C9, sequence (P11712 whole entry): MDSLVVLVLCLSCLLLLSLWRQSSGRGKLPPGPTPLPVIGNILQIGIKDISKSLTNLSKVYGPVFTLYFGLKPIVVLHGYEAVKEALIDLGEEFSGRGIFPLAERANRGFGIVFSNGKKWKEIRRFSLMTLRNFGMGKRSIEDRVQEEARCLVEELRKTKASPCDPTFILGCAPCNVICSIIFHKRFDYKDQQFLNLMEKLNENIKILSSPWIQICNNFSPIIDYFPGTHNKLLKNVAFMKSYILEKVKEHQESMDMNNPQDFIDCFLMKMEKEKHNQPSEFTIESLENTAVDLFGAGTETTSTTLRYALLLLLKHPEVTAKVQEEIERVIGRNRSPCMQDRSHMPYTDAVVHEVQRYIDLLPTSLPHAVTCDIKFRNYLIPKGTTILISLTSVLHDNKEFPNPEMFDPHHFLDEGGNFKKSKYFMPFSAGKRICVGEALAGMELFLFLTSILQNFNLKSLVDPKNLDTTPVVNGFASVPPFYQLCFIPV
T3 sequence (P07510 23-517): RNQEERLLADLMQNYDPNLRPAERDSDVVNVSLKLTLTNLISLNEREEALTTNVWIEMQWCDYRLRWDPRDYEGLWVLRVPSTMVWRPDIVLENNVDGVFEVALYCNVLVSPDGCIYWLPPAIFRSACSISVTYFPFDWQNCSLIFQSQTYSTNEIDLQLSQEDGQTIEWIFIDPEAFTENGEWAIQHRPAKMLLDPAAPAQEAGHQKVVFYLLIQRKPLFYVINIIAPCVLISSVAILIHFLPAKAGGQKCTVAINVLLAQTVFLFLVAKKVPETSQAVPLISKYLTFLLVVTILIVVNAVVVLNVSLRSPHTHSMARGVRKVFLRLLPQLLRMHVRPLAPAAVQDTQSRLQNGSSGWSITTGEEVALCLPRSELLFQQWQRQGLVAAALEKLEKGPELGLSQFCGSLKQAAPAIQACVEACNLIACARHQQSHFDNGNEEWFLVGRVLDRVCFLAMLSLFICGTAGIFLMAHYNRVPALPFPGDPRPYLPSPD
T3 sequence (Q07001 22-517): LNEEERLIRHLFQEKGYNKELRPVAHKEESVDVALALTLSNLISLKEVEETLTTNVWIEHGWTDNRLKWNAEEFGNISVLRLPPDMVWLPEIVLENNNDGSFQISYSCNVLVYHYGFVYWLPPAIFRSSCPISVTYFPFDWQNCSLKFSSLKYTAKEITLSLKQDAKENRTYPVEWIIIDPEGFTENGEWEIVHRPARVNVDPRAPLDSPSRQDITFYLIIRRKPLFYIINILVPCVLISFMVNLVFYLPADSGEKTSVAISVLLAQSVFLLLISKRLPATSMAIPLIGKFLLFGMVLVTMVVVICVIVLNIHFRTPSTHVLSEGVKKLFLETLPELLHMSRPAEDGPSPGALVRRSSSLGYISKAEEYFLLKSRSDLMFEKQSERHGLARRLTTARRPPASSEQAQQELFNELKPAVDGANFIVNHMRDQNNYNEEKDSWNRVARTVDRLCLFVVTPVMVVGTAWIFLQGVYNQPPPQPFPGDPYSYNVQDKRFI
T3 sequence (P02708 21-457): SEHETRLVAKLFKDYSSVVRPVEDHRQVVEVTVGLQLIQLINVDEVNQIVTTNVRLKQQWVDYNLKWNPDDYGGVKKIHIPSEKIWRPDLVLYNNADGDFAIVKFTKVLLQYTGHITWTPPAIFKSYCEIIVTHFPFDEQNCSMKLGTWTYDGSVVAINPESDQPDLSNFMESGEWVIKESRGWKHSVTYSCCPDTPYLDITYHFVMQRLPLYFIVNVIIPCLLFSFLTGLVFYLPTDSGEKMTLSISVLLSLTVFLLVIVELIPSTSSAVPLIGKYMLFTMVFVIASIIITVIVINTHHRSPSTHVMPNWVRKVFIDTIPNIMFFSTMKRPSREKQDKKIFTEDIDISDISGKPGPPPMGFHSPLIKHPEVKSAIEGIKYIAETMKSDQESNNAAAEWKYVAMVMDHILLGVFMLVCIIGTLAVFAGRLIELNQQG
T3 sequence (P11230 24-501, further chain): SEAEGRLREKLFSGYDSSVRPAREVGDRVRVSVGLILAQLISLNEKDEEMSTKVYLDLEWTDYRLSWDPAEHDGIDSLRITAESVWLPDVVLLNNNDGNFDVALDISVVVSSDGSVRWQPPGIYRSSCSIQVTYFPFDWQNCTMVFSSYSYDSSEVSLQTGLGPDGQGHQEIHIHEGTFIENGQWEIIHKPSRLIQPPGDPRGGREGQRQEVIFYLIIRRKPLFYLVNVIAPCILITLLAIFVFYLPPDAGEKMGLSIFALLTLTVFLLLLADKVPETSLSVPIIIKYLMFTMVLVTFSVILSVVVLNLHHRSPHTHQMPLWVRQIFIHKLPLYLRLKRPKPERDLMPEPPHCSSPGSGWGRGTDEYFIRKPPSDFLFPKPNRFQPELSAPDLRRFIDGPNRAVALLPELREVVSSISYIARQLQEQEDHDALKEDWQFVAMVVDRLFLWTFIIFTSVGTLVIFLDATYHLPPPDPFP
T1 sequence (P09483 31-630): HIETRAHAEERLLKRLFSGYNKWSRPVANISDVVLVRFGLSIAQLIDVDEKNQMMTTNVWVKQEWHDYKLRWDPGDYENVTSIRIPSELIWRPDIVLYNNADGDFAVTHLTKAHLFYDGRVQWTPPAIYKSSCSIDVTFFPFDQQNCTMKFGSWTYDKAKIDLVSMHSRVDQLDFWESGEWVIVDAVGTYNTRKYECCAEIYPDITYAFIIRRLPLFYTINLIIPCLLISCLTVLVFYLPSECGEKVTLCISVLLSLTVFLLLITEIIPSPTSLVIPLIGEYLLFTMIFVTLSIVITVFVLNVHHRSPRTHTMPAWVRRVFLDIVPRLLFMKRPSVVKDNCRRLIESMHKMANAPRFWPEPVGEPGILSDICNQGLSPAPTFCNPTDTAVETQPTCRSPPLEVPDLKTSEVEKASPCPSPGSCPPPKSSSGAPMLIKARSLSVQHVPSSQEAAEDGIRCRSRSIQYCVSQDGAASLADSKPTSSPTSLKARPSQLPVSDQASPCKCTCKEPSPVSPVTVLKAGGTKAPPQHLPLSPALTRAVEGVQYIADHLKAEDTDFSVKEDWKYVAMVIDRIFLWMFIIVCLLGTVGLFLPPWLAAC
T1 sequence (P12390 25-500): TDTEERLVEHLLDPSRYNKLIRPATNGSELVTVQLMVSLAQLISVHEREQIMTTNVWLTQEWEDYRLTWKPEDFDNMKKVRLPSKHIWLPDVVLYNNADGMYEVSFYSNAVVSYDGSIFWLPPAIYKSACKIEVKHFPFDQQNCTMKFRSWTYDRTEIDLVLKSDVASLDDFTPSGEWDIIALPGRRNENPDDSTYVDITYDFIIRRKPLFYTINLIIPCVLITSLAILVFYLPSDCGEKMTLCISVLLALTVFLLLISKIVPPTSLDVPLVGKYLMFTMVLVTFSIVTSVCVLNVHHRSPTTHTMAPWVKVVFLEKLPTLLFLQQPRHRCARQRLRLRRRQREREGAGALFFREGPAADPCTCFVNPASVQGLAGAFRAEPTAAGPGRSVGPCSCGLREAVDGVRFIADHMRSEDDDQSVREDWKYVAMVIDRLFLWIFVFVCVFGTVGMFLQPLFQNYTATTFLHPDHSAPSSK

C(=C\[C@H]1CCNC1)/c1cncc(OC2CCOCC2)c1 [Compound A, (R)-3-((E)-2-(pyrrolidin-3-yl)vinyl)-5-(tetrahydropyran-4-yloxy)pyridine] showed a Ki [1] of 0.004 µM, a Ki [2] greater than 10 µM and a Ki ([2]; read-out: Rat hippocampus (α7) Ki, [3H]methyllycaconitine (MLA), rat hippocampal membranes) greater than 10 µM. The Ki [3] was 25 µM, the IC50 [4] was 84 µM and the “time-dependent inhibition of CYP2C9” value [5] was “no evidence of time-dependent inhibition”. The Pgp substrate [6] was “substrate for Pgp brain pump” and the water solubility [7] was “limited water solubility”.
